In ChEMBL document CHEMBL1141361, “Niphatoxin C, a cytotoxic tripyridine alkaloid from Callyspongia sp” (J Nat Prod, 2007):

Columns and labels:
THP-1 [1] = test: Increase in hemolysin-induced pore formation in human THP1 cells at 10 uM relative to control; assay type: functional
THP-1 [2] = test: Cytotoxicity against human THP1 cells after 21 hrs; assay type: functional, cell-based; conditions: THP-1, 21 h
THP-1 [3] = test: Cytotoxicity against human THP1 cells at 30 uM; assay type: functional
[4] = biological target: T1, P2X purinoceptor 7 (Homo sapiens) (UniProt Q99572); test: Antagonist activity at P2X7 receptor expressed in human THP1 cells assessed as reduction of benzoylbenzoyl adenosine triphosphate-induced pore formation at 10 uM relative to control; assay type: functional, cell-based; parameters: scale not given: the % may be the effect or the level left; conditions: THP-1
T1 sequence (whole entry): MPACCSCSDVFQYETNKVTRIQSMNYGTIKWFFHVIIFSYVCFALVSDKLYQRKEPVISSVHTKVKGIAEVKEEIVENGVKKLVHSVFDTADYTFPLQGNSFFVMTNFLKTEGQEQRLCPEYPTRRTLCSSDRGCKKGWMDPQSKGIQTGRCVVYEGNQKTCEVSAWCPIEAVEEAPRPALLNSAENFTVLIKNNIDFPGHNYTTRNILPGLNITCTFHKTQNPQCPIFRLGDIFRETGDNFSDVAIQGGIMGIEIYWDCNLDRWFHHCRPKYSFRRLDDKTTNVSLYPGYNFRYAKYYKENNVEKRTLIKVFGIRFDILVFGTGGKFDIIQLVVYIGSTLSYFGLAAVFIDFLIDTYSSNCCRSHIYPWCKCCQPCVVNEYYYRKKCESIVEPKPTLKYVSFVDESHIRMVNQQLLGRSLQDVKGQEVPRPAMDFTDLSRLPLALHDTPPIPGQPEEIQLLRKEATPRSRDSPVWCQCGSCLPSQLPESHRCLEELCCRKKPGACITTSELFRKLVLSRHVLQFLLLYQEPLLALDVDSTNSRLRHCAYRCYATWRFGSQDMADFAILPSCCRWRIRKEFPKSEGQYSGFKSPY

THP-1 [5] = test: Increase in hemolysin-induced pore formation in human THP1 cells at 100 uM relative to control; assay type: functional
THP-1 [6] = test: Cytotoxicity against human THP1 cells at 100 uM; assay type: functional

C(=C/CCCC[n+]1cccc(C/C=C\CCCCCCc2cccnc2)c1)/CCCCCCc1cccnc1 [NIPHATOXIN C] showed an Activity (THP-1 [1]) of 101%, an IC50 (THP-1 [2]) of 11.5 µM and an Activity (THP-1 [3]) of 0%. For the same compound, the Activity [4] was 41%, the Activity (THP-1 [5]) was 185% and the Activity (THP-1 [6]) was 99%.
